The assay concerns the target Beta-3 Adrenergic Receptor (Homo sapiens (Human), UniProt P13945). As to the kind of experiment: HTRF cAMP antagonist assay (IC50 determination). It counts as cell-based. To be noted: CHO-K1 cells stably expressing recombinant receptor; antagonism of isoproterenol at EC90; cAMP readout. The essentials: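 CHO-K1 cells stably expressing receptor, 1500 cells/well, preincubated briefly with 10-point 5-fold compound series (top final typically 10 or 100 μM) in PBS with 1 mM IBMX, then challenged with isoproterenol at EC90 for 1 h at room temperature. cAMP read by HTRF against on-plate standard curve; IC50 from dose-response.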
A general note: Time-resolved FRET reads energy transfer from a long-lived donor to a nearby acceptor.
Sequence of Beta-3 Adrenergic Receptor (P13945 whole entry, species assumed): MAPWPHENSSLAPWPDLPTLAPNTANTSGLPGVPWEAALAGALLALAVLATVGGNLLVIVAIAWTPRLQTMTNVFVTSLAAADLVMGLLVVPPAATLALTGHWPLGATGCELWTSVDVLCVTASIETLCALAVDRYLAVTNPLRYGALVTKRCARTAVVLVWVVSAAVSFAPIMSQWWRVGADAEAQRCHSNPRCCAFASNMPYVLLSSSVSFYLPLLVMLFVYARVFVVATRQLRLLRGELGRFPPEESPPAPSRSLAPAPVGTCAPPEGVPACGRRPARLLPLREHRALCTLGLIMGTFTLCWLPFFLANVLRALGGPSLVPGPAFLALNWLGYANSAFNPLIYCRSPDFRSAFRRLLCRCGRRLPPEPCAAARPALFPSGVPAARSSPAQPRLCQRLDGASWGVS
Broadly, the IC50 is the concentration at which inhibition is half-maximal. In the case of `CS(=O)(=O)c1cccc(OC[C@@H](O)CNC2COC3(CCN(S(=O)(=O)c4cccc(-c5ccc(CNCC(F)(F)F)cc5)c4)CC3)C2)c1` (stereo partly drawn) [Compound 82, (2S)-1-(3-(methylsulfonyl)phenoxy)-3-(8-(4′-((2,2,2-trifluoroethylamino)methyl)biphenyl-3-ylsulfonyl)-1-oxa-8-azaspiro[4.5]decan-3-ylamino)propan-2-ol], the IC50 turned out to be 43.2 nM.
`COc1ccc(S(=O)(=O)N2CCC3(CC2)C[C@H](NC[C@H](O)COc2cccc(S(=O)(=O)C4(CO)CC4)c2)CO3)cc1-c1ccc(CN)cc1` [Compound 207, (S)-1-((S)-8-(4′-(aminomethyl)-6-methoxybiphenyl-3-ylsulfonyl)-1-oxa-8-azaspiro[4.5]decan-3-ylamino)-3-(3-(1-(hydroxymethyl)cyclopropylsulfonyl)phenoxy)propan-2-ol]: the 50% inhibitory concentration (IC50) was found to be 51.1 nM.
As for `Cc1c(S(=O)(=O)N2CCC3(CC2)C[C@@H](NC[C@H](O)COc2cccc(S(=O)(=O)C4(CO)CC4)c2)CO3)cnc2c1N(C)CCO2` [Compound 260, (S)-1-((R)-8-(1,8-dimethyl-2,3-dihydro-1H-pyrido[2,3-b][1,4]oxazin-7-ylsulfonyl)-1-oxa-8-azaspiro[4.5]decan-3-ylamino)-3-(3-(1-(hydroxymethyl)cyclopropylsulfonyl)phenoxy)propan-2-ol], the IC50 came out at 178 nM.
Turning to `O=S(=O)(c1cccc(OC[C@@H](O)CN[C@H]2COC3(CCN(S(=O)(=O)c4cnc5ccccc5c4)CC3)C2)c1)C1CC(O)C1` (stereo partly drawn) [Compound 146, 3-(3-((S)-2-hydroxy-3-((R)-8-(quinolin-3-ylsulfonyl)-1-oxa-8-azaspiro[4.5]decan-3-ylamino)propoxy)phenylsulfonyl)cyclobutanol], the IC50 came out at 104 nM.
`CCS(=O)(=O)c1cccc(OC[C@@H](O)CN[C@H]2COC3(CCN(S(=O)(=O)c4ccc5ccccc5c4)CC3)C2)c1` [Compound 26, (S)-1-(3-(ethylsulfonyl)phenoxy)-3-((R)-8-(naphthalen-2-ylsulfonyl)-1-oxa-8-azaspiro[4.5]decan-3-ylamino)propan-2-ol]: the half-inhibitory concentration (IC50) was found to be 5.25 nM.
Take `COCCNCc1ccc(-c2cccc(S(=O)(=O)N3CCC4(CC3)C[C@H](NC[C@H](O)COc3cccc(S(=O)(=O)C5(CO)CC5)c3)CO4)c2)cc1` [Compound 247, (S)-1-(3-(1-(hydroxymethyl)cyclopropylsulfonyl)phenoxy)-3-((S)-8-(4′-((2-methoxyethylamino)methyl)biphenyl-3-ylsulfonyl)-1-oxa-8-azaspiro[4.5]decan-3-ylamino)propan-2-ol]: the IC50 was found to be 33.5 nM.
As to `CCOc1ccc(-c2ccc(CN)cc2)cc1S(=O)(=O)N1CCC2(CC1)C[C@@H](NC[C@H](O)COc1cccc(S(=O)(=O)C3(CO)CC3)c1)CO2` [Compound 158, (S)-1-((R)-8-(4′-(aminomethyl)-4-ethoxybiphenyl-3-ylsulfonyl)-1-oxa-8-azaspiro[4.5]decan-3-ylamino)-3-(3-(1-(hydroxymethyl)cyclopropylsulfonyl)phenoxy)propan-2-ol], the half-inhibitory concentration (IC50) was determined as 27.3 nM.
Next, `O=S(=O)(CC1CC1)c1cccc(OC[C@@H](O)CN[C@H]2COC3(CCN(S(=O)(=O)c4ccc5ncccc5c4)CC3)C2)c1` [Compound 117, (S)-1-(3-(cyclopropylmethylsulfonyl)phenoxy)-3-((R)-8-(quinolin-6-ylsulfonyl)-1-oxa-8-azaspiro[4.5]decan-3-ylamino)propan-2-ol]: 172 nM; `NCCS(=O)(=O)c1cccc(OC[C@@H](O)CNC2COC3(CCN(S(=O)(=O)c4ccc5ccccc5c4)CC3)C2)c1` (stereo partly drawn) [Compound 22, (2S)-1-(3-(2-aminoethylsulfonyl)phenoxy)-3-(8-(naphthalen-2-ylsulfonyl)-1-oxa-8-azaspiro[4.5]decan-3-ylamino)propan-2-ol]: 302 nM; `CN1CC(C)(C)Oc2nc(S(=O)(=O)N3CCC4(CC3)C[C@@H](NC[C@H](O)COc3cccc(S(=O)(=O)C5(CO)CC5)c3)CO4)ccc21` [Compound 288, (S)-1-(3-(1-(hydroxymethyl)cyclopropylsulfonyl)phenoxy)-3-((R)-8-(1,3,3-trimethyl-2,3-dihydro-1H-pyrido[2,3-b][1,4]oxazin-6-ylsulfonyl)-1-oxa-8-azaspiro[4.5]decan-3-ylamino)propan-2-ol]: 177 nM.
For the molecule `O=S(=O)(CCO)c1cccc(OC[C@@H](O)CN[C@H]2COC3(CCN(S(=O)(=O)c4ccc(-c5ccccn5)cc4)CC3)C2)c1` [Compound 102, (S)-1-(3-(2-hydroxyethylsulfonyl)phenoxy)-3-((R)-8-(4-(pyridin-2-yl)phenylsulfonyl)-1-oxa-8-azaspiro[4.5]decan-3-ylamino)propan-2-ol], the 50% inhibitory concentration (IC50) turned out to be 114 nM.
Next, `CN1CCOc2ncc(S(=O)(=O)N3CCC4(CC3)C[C@@H](NC[C@H](O)COc3cccc(CS(C)(=O)=O)c3)CO4)cc21` [Compound 104, (S)-1-((R)-8-(1-methyl-2,3-dihydro-1H-pyrido[2,3-b][1,4]oxazin-7-ylsulfonyl)-1-oxa-8-azaspiro[4.5]decan-3-ylamino)-3-(3-(methylsulfonylmethyl)phenoxy)propan-2-ol]: 36.5 nM; `O=S(=O)(CCC(F)(F)F)c1cccc(OC[C@@H](O)CNC2COC3(CCN(S(=O)(=O)c4ccc5ccccc5c4)CC3)C2)c1` (stereo partly drawn) [Compound 9, (2S)-1-(8-(naphthalen-2-ylsulfonyl)-1-oxa-8-azaspiro[4.5]decan-3-ylamino)-3-(3-(3,3,3-trifluoropropylsulfonyl)phenoxy)propan-2-ol]: 24.2 nM.
As for `CS(=O)(=O)c1cccc(OC[C@@H](O)CNC2COC3(CCN(S(=O)(=O)c4ccc5c(c4)NC(=O)CO5)CC3)C2)c1` (stereo partly drawn) [Compound 53, 6-(3-((S)-2-hydroxy-3-(3-(methylsulfonyl)phenoxy)propylamino)-1-oxa-8-azaspiro[4.5]decan-8-ylsulfonyl)-2H-benzo[b][1,4]oxazin-3(4H)-one], the concentration for half-maximal inhibition (IC50) is 23.9 nM.
In the case of `O=c1c(S(=O)(=O)N2CCC3(CC2)C[C@@H](NC[C@H](O)COc2cccc(S(=O)(=O)C4CC4)c2)CO3)c[nH]c2ccccc12` [Compound 326, 3-((R)-3-((S)-3-(3-(cyclopropylsulfonyl)phenoxy)-2-hydroxypropylamino)-1-oxa-8-azaspiro[4.5]decan-8-ylsulfonyl)quinolin-4(1H)-one], the IC50 was determined as 17.3 nM.
With `O=S(=O)(c1cccc(-c2ccc(CNC3CCC3)cc2)c1)N1CCC2(CC1)C[C@@H](NC[C@H](O)COc1cccc(S(=O)(=O)C3(CO)CC3)c1)CO2` [Compound 269, (S)-1-((R)-8-(4′-((cyclobutylamino)methyl)biphenyl-3-ylsulfonyl)-1-oxa-8-azaspiro[4.5]decan-3-ylamino)-3-(3-(1-(hydroxymethyl)cyclopropylsulfonyl)phenoxy)propan-2-ol], the IC50 turned out to be 400 nM.
Turning to `CCS(=O)(=O)c1cccc(OC[C@@H](O)CN[C@@H]2COC3(CCN(S(=O)(=O)c4ccc(OC)c(-c5ccc(C6(N)CC6)cc5)c4)CC3)C2)c1` [Compound 261, (S)-1-((S)-8-(4′-(1-aminocyclopropyl)-6-methoxybiphenyl-3-ylsulfonyl)-1-oxa-8-azaspiro[4.5]decan-3-ylamino)-3-(3-(ethylsulfonyl)phenoxy)propan-2-ol], the 50% inhibitory concentration (IC50) was determined as 38.8 nM.
Turning to `CS(=O)(=O)c1cccc(OC[C@@H](O)CN[C@H]2COC3(CCN(S(=O)(=O)c4c[nH]c5ccccc45)CC3)C2)c1` [Compound 311, (S)-1-((R)-8-(1H-indol-3-ylsulfonyl)-1-oxa-8-azaspiro[4.5]decan-3-ylamino)-3-(3-(methylsulfonyl)phenoxy)propan-2-ol], the IC50 is 43.5 nM.
Regarding `Cc1c(Br)cccc1S(=O)(=O)N1CCC2(CC1)C[C@H](NC[C@H](O)COc1cccc(S(=O)(=O)C3(CO)CC3)c1)CO2` [Compound 200, (S)-1-((S)-8-(3-bromo-2-methylphenylsulfonyl)-1-oxa-8-azaspiro[4.5]decan-3-ylamino)-3-(3-(1-(hydroxymethyl)cyclopropylsulfonyl)phenoxy)propan-2-ol], the half-inhibitory concentration (IC50) is 72.4 nM.
The value for `O=S(=O)(c1cnc2cccn2c1)N1CCC2(CC1)C[C@@H](NC[C@H](O)COc1cccc(S(=O)(=O)C3(CO)CC3)c1)CO2` [Compound 302, (S)-1-(3-(1-(hydroxymethyl)cyclopropylsulfonyl)phenoxy)-3-((R)-8-(pyrrolo[1,2-a]pyrimidin-3-ylsulfonyl)-1-oxa-8-azaspiro[4.5]decan-3-ylamino)propan-2-ol] was 696 nM; that for `CCn1cc(S(=O)(=O)N2CCC3(CC2)C[C@H](NC[C@@H](O)COc2cccc(S(C)(=O)=O)c2)CO3)c(=O)c2ccccc21` [Compound 296, 1-ethyl-3-((S)-3-((R)-2-hydroxy-3-(3-(methylsulfonyl)phenoxy)propylamino)-1-oxa-8-azaspiro[4.5]decan-8-ylsulfonyl)quinolin-4(1H)-one] was 107 nM.
Take `NC1(c2ccc(-c3cc(S(=O)(=O)N4CCC5(CC4)C[C@@H](NC[C@H](O)COc4cccc(S(=O)(=O)C6(CO)CC6)c4)CO5)ccc3F)cc2)CC1` [Compound 217, (S)-1-((R)-8-(4′-(1-aminocyclopropyl)-6-fluorobiphenyl-3-ylsulfonyl)-1-oxa-8-azaspiro[4.5]decan-3-ylamino)-3-(3-(1-(hydroxymethyl)cyclopropylsulfonyl)phenoxy)propan-2-ol]: the IC50 amounted to 28.4 nM.
As to `NC(=O)CCS(=O)(=O)c1cccc(OC[C@@H](O)CN[C@H]2COC3(CCN(S(=O)(=O)c4ccc5ncccc5c4)CC3)C2)c1` [Compound 133, 3-(3-((S)-2-hydroxy-3-((R)-8-(quinolin-6-ylsulfonyl)-1-oxa-8-azaspiro[4.5]decan-3-ylamino)propoxy)phenylsulfonyl)propanamide], the IC50 amounted to 443 nM.
On to `CCOc1ccc(-c2ccc(C3(N)CC3)cc2)cc1S(=O)(=O)N1CCC2(CC1)C[C@@H](NC[C@H](O)COc1cccc(S(=O)(=O)C3CC3)c1)CO2` [Compound 254, (S)-1-((R)-8-(4′-(1-aminocyclopropyl)-4-ethoxybiphenyl-3-ylsulfonyl)-1-oxa-8-azaspiro[4.5]decan-3-ylamino)-3-(3-(cyclopropylsulfonyl)phenoxy)propan-2-ol], for which the IC50 worked out at 41.8 nM.

Values taken from patent US10927123B2, “Modulators of the beta-3 adrenergic receptor useful for the treatment or prevention of disorders related thereto” (Arena Pharmaceuticals, Inc., priority 2016, dated 2021).
